Earlier results in paper PMC6647941 (ACS Omega, 2019).

Details: dopamine transporter tracer ref 12

CN1[C@H]2CC[C@@H]1[C@@H](CN(CC[S-])CC[N-]CC[S-])[C@@H](c1ccc(Cl)cc1)C2.[O]=[99Tc+4] [^99mTc-TRODAT-1]
brain uptake: 0.40 % ID/g
